Experimental findings from patent US8921376B2, “Pyrrolopyridines useful as inhibitors of protein kinase” (Vertex Pharmaceuticals Incorporated, priority 2005, dated 2014) are described below.

As usually defined, the Ki is a measure of affinity in units of concentration, obtained from inhibition or displacement.

Common to all, as to format: biochemical
Conditions in all cases: Table 6; enzyme inhibition data (Ki)

For assay [1], the target named is JAK2 (Homo sapiens, UniProt O60674). Briefly: JAK2 inhibition assay (as Example 3 with JAK-2 enzyme). An outline of the steps: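 Radiometric JAK2 kinase assay: poly(Glu)4Tyr substrate at final 15 μM, ATP at final 12 μM with [33P]; buffer 100 mM HEPES pH 7.4, 1 mM DTT, 10 mM MgCl2, 25 mM NaCl, 0.01% BSA. 20 min at 25 °C, TCA-stopped, 33P incorporation counted after filter capture.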

Assay [2] has as its target T1, JAK3 (Homo sapiens, UniProt P52333).
T1 sequence (P52333 1-1124): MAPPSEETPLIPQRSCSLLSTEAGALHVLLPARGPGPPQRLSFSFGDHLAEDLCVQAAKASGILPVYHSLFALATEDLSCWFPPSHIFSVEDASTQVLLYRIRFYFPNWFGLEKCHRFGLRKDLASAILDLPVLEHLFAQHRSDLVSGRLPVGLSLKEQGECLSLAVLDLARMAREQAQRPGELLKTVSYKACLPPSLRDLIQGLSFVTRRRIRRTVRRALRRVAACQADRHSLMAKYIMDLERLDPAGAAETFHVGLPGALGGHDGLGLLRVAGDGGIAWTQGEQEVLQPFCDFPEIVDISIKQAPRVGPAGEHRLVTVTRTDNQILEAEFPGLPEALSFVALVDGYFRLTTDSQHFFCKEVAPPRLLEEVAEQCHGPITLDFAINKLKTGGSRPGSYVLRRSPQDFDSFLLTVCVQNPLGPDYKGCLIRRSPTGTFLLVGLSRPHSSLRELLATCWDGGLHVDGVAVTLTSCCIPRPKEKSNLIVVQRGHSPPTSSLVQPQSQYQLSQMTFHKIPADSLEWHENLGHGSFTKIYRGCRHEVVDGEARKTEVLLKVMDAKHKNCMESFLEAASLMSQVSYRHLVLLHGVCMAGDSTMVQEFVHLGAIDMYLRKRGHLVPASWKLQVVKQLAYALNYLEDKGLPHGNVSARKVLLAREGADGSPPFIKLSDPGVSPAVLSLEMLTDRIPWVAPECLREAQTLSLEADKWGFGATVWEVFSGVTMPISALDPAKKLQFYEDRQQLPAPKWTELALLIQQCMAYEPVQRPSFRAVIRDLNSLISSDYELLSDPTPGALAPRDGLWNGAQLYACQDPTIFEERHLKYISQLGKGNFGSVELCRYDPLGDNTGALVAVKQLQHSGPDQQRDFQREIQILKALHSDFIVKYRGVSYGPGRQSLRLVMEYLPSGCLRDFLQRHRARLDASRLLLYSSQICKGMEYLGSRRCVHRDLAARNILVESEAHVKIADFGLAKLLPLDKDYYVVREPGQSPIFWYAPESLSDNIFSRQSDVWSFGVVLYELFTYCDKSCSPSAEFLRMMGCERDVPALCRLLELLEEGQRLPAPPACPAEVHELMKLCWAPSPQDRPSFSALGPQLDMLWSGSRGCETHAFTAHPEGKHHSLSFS
Briefly: JAK3 inhibition assay (33P incorporation into poly(Glu)4Tyr). The method, boiled down: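 Human JAK3 at 1 nM phosphorylated 1 μM poly(Glu)4Tyr using 5 μM [33P]ATP in HEPES pH 7.4 buffer with MgCl2, DTT and BSA. Reactions ran 20 min at 25° C. and were stopped with TCA. 33P incorporation was measured by scintillation after glass-fiber filter capture.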

Assay [3] deals with ROCK I (Homo sapiens, UniProt Q13464). As to the kind of experiment: ROCK-I inhibition assay (radioactive enzyme assay, MBP substrate). An outline of the steps:
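Human ROCK at 5 nM phosphorylated 27 μM myelin basic protein with 13 μM [γ-33P]ATP (final) in HEPES pH 7.5, MgCl2, NaCl, DTT and 1.5% DMSO. Reactions ran 2 h at room temperature before TCA quench and filter-plate scintillation counting. After background subtraction, data were fit to give Ki(app).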

Sequence of ROCK I (Q13464 whole entry): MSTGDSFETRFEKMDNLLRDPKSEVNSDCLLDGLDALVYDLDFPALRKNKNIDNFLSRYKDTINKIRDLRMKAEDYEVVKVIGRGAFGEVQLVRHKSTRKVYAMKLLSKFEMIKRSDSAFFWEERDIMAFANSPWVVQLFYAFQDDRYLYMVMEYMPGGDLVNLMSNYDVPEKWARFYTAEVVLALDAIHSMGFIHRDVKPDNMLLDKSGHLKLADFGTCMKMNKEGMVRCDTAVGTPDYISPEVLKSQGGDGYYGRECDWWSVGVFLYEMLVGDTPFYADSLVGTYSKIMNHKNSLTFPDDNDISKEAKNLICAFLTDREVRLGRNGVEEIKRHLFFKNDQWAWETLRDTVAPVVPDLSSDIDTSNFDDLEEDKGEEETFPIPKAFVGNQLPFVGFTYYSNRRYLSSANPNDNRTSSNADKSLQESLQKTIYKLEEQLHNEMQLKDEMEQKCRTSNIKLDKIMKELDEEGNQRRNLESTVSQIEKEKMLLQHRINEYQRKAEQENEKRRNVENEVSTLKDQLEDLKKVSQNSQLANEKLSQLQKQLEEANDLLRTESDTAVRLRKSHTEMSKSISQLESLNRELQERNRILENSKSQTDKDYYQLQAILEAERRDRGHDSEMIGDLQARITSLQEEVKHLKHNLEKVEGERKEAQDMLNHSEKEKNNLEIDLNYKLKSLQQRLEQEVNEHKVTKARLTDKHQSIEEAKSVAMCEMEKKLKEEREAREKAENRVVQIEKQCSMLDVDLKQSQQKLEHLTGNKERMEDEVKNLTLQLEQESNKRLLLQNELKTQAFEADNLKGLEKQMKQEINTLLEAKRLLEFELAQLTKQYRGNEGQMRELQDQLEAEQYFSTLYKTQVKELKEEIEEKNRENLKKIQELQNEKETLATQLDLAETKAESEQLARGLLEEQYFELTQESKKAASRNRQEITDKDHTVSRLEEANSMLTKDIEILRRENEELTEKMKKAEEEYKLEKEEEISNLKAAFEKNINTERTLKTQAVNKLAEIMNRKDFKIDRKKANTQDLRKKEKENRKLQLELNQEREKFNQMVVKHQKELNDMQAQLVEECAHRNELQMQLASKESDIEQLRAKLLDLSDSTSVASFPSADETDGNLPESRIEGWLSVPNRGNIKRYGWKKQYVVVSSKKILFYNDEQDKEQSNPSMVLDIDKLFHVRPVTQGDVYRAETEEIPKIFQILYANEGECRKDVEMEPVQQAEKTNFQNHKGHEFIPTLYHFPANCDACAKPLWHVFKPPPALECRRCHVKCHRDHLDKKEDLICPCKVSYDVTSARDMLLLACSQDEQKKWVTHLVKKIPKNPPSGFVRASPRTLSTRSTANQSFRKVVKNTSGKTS
Sequence of JAK2 (O60674 whole entry): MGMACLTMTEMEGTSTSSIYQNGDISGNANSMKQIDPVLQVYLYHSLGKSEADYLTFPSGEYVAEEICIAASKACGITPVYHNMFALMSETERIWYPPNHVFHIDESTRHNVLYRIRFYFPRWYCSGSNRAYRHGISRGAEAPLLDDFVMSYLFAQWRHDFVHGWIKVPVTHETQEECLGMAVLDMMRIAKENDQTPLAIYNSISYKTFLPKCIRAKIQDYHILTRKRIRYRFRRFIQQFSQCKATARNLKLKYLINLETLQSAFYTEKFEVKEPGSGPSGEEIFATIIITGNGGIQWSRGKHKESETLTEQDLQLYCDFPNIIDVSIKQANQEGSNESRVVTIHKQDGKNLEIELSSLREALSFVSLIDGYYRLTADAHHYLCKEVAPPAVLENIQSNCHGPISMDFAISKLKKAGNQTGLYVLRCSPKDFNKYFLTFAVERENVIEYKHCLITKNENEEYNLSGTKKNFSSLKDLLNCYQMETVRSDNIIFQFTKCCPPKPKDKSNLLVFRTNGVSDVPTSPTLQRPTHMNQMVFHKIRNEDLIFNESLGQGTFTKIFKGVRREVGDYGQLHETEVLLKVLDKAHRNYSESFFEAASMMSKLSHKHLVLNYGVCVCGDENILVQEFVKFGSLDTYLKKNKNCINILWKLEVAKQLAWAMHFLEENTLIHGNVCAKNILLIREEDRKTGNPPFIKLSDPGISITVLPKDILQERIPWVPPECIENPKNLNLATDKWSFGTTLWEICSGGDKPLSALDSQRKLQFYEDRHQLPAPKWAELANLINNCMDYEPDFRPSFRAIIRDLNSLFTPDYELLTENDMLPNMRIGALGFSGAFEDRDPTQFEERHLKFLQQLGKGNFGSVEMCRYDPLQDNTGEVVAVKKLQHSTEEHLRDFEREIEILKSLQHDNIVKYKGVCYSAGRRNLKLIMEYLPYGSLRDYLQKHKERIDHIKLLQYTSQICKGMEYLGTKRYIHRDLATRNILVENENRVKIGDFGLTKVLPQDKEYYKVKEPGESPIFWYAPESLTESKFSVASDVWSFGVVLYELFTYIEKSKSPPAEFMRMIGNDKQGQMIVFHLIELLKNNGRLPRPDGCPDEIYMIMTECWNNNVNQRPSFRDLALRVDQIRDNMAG

`C[C@@H](Nc1ccnc(-c2ccnc3[nH]ccc23)n1)C(=O)NCC(F)(F)F` [compound 202]: the Ki in assay [1] is 0.5 to 5 µM; in assay [2], less than 0.5 µM; in assay [3] it was more than 4 µM.
`Nc1nc(-c2ccnc3[nH]ccc23)ncc1F` [compound 203]: the inhibition constant (Ki) in assay [1] is 0.5 to 5 µM; in assay [2], 0.5 to 5 µM; in assay [3], more than 4 µM.
In the case of `O=C(NCC(F)(F)F)[C@H](CO)Nc1nc(-c2ccnc3[nH]ccc23)ncc1F` [compound 204], the Ki is 0.5 to 5 µM in assay [1], less than 0.5 µM in assay [2] and 0.5 to 5 µM in assay [3].
For `COc1ccc(F)cc1-c1ccnc2[nH]ccc12` [compound 205], the Ki in assay [1], in assay [2] and in assay [3] was 0.5 to 5 µM throughout.
`FC(F)(F)Oc1ccccc1-c1ccnc2[nH]ccc12` [compound 206]: the Ki in assay [1] was 0.5 to 5 µM; in assay [2], 0.5 to 5 µM; in assay [3] it was more than 4 µM.
As for `Fc1ccc(-c2ccnc3[nH]ccc23)c(F)c1` [compound 207], the results for the Ki in assay [1], in assay [2] and in assay [3] were 0.5 to 5 µM, less than 0.5 µM and 0.5 to 5 µM, respectively.
For the molecule `FC(F)(F)c1ccccc1-c1ccnc2[nH]ccc12` [compound 208], the inhibition constant Ki in assay [1] is more than 5 µM; in assay [2] it was more than 5 µM; in assay [3] it was 0.5 to 5 µM.
With `Cc1ccc(C)c(-c2ccnc3[nH]ccc23)c1` [compound 209], the values for the Ki in assay [1], in assay [2] and in assay [3] were more than 5 µM, more than 5 µM and less than 0.5 µM, respectively.
As to `Clc1ccc(-c2ccnc3[nH]ccc23)c(Cl)c1` [compound 210], the values for the Ki in assay [1], in assay [2] and in assay [3] were 0.5 to 5 µM, 0.5 to 5 µM and less than 0.5 µM, respectively.
For `Clc1ccc(Cl)c(-c2ccnc3[nH]ccc23)c1` [compound 211], the Ki in assay [1] was 0.5 to 5 µM; in assay [2], 0.5 to 5 µM; in assay [3], less than 0.5 µM.
`Cc1cccc(-c2ccnc3[nH]ccc23)c1C` [compound 212]: the Ki in assay [1], in assay [2] and in assay [3] was 0.5 to 5 µM throughout.
As for `CC(=O)c1ccccc1-c1ccnc2[nH]ccc12` [compound 213], the Ki in assay [1] is more than 5 µM; in assay [2], more than 5 µM; in assay [3], more than 4 µM.
For `N#Cc1ccccc1-c1ccnc2[nH]ccc12` [compound 214], the values for the Ki in assay [1], in assay [2] and in assay [3] were more than 5 µM, 0.5 to 5 µM and 0.5 to 5 µM, respectively.
Regarding `O=C(NCC(F)(F)F)[C@H]1CCCCN1c1ccnc(-c2ccnc3[nH]ccc23)n1` [compound 215], the Ki in assay [1] was 0.5 to 5 µM; in assay [2] it was less than 0.5 µM; in assay [3], more than 4 µM.
For `Clc1ccccc1-c1ccnc2[nH]ccc12` [compound 216], the Ki in assay [1], in assay [2] and in assay [3] was 0.5 to 5 µM in each case.
With `Cc1cccc(C)c1-c1ccnc2[nH]ccc12` [compound 217], the figures for the Ki in assay [1], in assay [2] and in assay [3] were more than 5 µM, more than 5 µM and more than 4 µM, respectively.
As for `Cc1ccc(-c2ccnc3[nH]ccc23)c(C)c1` [compound 218], the Ki was more than 5 µM in assay [1], 0.5 to 5 µM in assay [2] and less than 0.5 µM in assay [3].
For the molecule `Cc1ccccc1-c1ccnc2[nH]ccc12` [compound 219], the Ki in assay [1] is more than 5 µM; in assay [2] it was 0.5 to 5 µM; in assay [3], 0.5 to 5 µM.
For `COc1ccc(-c2ccnc3[nH]ccc23)c(OC)c1` [compound 220], the Ki in assay [1], in assay [2] and in assay [3] was 0.5 to 5 µM throughout.
With `COc1ccc(OC)c(-c2ccnc3[nH]ccc23)c1` [compound 221], the figures for the Ki in assay [1], in assay [2] and in assay [3] were more than 5 µM, more than 5 µM and 0.5 to 5 µM, respectively.
On to `COc1cccc(OC)c1-c1ccnc2[nH]ccc12` [compound 222], for which the Ki in assay [1] was more than 5 µM; in assay [2], more than 5 µM; in assay [3] it was more than 4 µM.
For the molecule `CCOc1ccccc1-c1ccnc2[nH]ccc12` [compound 223], the Ki in assay [1], in assay [2] and in assay [3] was 0.5 to 5 µM in each case.
Regarding `Clc1cccc(-c2ccnc3[nH]ccc23)c1Cl` [compound 224], the results for the inhibition constant (Ki) in assay [1], in assay [2] and in assay [3] were 0.5 to 5 µM, 0.5 to 5 µM and less than 0.5 µM, respectively.
For `c1ccc(COc2ccccc2-c2ccnc3[nH]ccc23)cc1` [compound 225], the Ki was more than 5 µM in assay [1], more than 5 µM in assay [2] and more than 4 µM in assay [3].
`c1ccc(-c2ccccc2-c2ccnc3[nH]ccc23)cc1` [compound 226]: the figures for the Ki in assay [1], in assay [2] and in assay [3] were more than 5 µM, more than 5 µM and more than 4 µM, respectively.
In the case of `c1cnc2c(-c3ccnc4[nH]ccc34)cccc2c1` [compound 227], the inhibition constant (Ki) in assay [1] was more than 5 µM; in assay [2], more than 5 µM; in assay [3], more than 4 µM.
As to `O=C1NCCCC[C@@H]1Nc1c(Cl)cnc2[nH]ccc12` [compound 228], the Ki was less than 0.5 µM in assay [1], less than 0.5 µM in assay [2] and more than 4 µM in assay [3].
As for `CC1CCC(Nc2c(Cl)cnc3[nH]ccc23)CC1` (stereo not drawn) [compound 229], the Ki in assay [1] is less than 0.5 µM; in assay [2], less than 0.5 µM; in assay [3] it was 0.5 to 5 µM.
In the case of `CC(C)Oc1ccccc1-c1ccnc2[nH]ccc12` [compound 230], the Ki in assay [1] is 0.5 to 5 µM; in assay [2], 0.5 to 5 µM; in assay [3], more than 4 µM.
With `CCc1ccccc1-c1ccnc2[nH]ccc12` [compound 231], the Ki in assay [1], in assay [2] and in assay [3] was 0.5 to 5 µM in each case.
Turning to `CC(C)(C)OCc1ccccc1-c1ccnc2[nH]ccc12` [compound 232], the values for the inhibitory constant (Ki) in assay [1], in assay [2] and in assay [3] were more than 5 µM, more than 5 µM and more than 4 µM, respectively.
Take `COc1cccc(-c2ccnc3[nH]ccc23)c1OC` [compound 233]: the Ki in assay [1] is more than 5 µM; in assay [2], 0.5 to 5 µM; in assay [3], 0.5 to 5 µM.
Regarding `CCCOc1ccccc1-c1ccnc2[nH]ccc12` [compound 234], the figures for the Ki in assay [1], in assay [2] and in assay [3] were more than 5 µM, 0.5 to 5 µM and more than 4 µM, respectively.
In the case of `COc1ccc(Cl)cc1-c1ccnc2[nH]ccc12` [compound 235], the Ki in assay [1], in assay [2] and in assay [3] was 0.5 to 5 µM in each case.
On to `Fc1ccccc1-c1ccnc2[nH]ccc12` [compound 236], for which the figures for the Ki in assay [1], in assay [2] and in assay [3] were 0.5 to 5 µM, less than 0.5 µM and less than 0.5 µM, respectively.
Turning to `CCOc1ccc(Cl)cc1-c1ccnc2[nH]ccc12` [compound 237], the Ki in assay [1] was 0.5 to 5 µM; in assay [2], more than 5 µM; in assay [3], 0.5 to 5 µM.
As for `O=C(O)c1ccccc1-c1ccnc2[nH]ccc12` [compound 238], the Ki was more than 5 µM in assay [1], more than 5 µM in assay [2] and more than 4 µM in assay [3].
For the molecule `CSc1ccccc1-c1ccnc2[nH]ccc12` [compound 239], the Ki in assay [1], in assay [2] and in assay [3] was 0.5 to 5 µM each time.
`c1ccc(Oc2ccccc2-c2ccnc3[nH]ccc23)cc1` [compound 240]: the Ki in assay [1] was more than 5 µM; in assay [2], more than 5 µM; in assay [3] it was more than 4 µM.
`CCCCOc1ccccc1-c1ccnc2[nH]ccc12` [compound 241]: the Ki in assay [1] is more than 5 µM; in assay [2], more than 5 µM; in assay [3] it was more than 4 µM.
For the molecule `Cc1cc(C)c(-c2ccnc3[nH]ccc23)c(C)c1` [compound 242], the Ki in assay [1] was more than 5 µM; in assay [2], more than 5 µM; in assay [3], more than 4 µM.
Take `Cc1cc(F)ccc1-c1ccnc2[nH]ccc12` [compound 243]: the Ki is more than 5 µM in assay [1], 0.5 to 5 µM in assay [2] and 0.5 to 5 µM in assay [3].
